Consider 13 compounds from patent publication US20170094972A1, “Compounds and Compositions Having Knock-Down Activity Against Insect Pests” (priority 2015, published 2017).

What all share (type): in vivo
The test system of data set [1] is adult female mosquitoes. Put plainly: Bottle assay based on CDC bottle assay. As to conditions: Table B15; rates not given. As to the method:
Based on the “CDC bottle assay” (described at http://www.cdc.gov/malaria/resources/pdf/fsp/ir_manual/ir_cdc_bioassay_en.pdf) 1 ml of ethanol containing a test compound at a defined concentration was added to a 250 ml glass bottle and the bottles were placed on a rolling table to coat the inner surfaces as the solvent evaporated. Once dry, twenty five non-blood fed adult female mosquitoes of the appropriate species and strains (each three day old) were aspirated from the stock culture and gently blown into the exposure bottles. The lid of the bottle was replaced and the bottle placed upright out of direct sun light under standard culture conditions, nominally 28° C. and 60-80% relative humidity.
A stopwatch was started, and the assessment of the knock-down were made after 15 mins and 60 minutes. A mosquito was said to be knocked down if it was unable to stand, following the CDC definition. The bottles were replaced in an upright position when not being assessed.
After one hour the mosquitoes were carefully removed from the bottle with an aspirator and placed in a recovery cup. The mosquitoes were supplied with a 10% sucrose solution on a cotton wool bung, and stored under culture conditions. Assessments of the mortality were made after 24 hours and 48 hours (B15).
Each treatment was replicated a minimum of four times, with the mean knockdown or mortality recorded. In each study, a set of bottles was infested with a known insecticide susceptible strain of mosquitoes from the same genera as the resistant strains.

Data set [2] deals with female mosquitoes. Briefly: Tunnel study based on WHOPES tunnel tests with Hemotek membrane feeding device. As to the method: Based on the “WHOPES tunnel tests” (described at http://apps.who.int/iris/bitstream/10665/80270/1/9789241505277_eng.pdf), except that live guniea pig baits were replaced with a Hemotek membrane feeding device, filled with blood and kept constant at 37° C. to mimic a human host. All tests were done under standardised laboratory controlled conditions (27° C.+2° C. under subdued light). The tunnel apparatus was a 60×30×30 cm glass case open at each end and the floor was lined with wet blue roll in order to maintain humidity. A 30×30×30 cm cage, covered in untreated netting, was placed at the release end. The test nets were cut to 25×25 cm squares and fitted into cardboard frames that allow a 20×20 cm area to be exposed. Nine holes, 1 cm in diameter, were made in the netting in the pattern specified in the WHOPES test. The frames were then fitted into the tunnel one third of the way down its length. A Hemotek device, filled with blood and kept constant at 37° C. to mimic a human host, was placed in the smaller area of the glass tunnel behind the test netting, and the end of the tunnel closed with a netting screen. A human sat at the Hemotek end of the tunnels for the duration of the test. At the start of the test (13.30-14.00), 100 female mosquitoes (non-blood fed, aged 5-8 days) were introduced into the cage. Mosquitoes are free to fly in the tunnel but have to make contact with the piece of netting and locate the holes in it before passing through to reach the bait. After 7 hours (20.30-21.00) the mosquitoes were counted in each section of the tunnel. The number of mosquitoes knocked down and blood fed were recorded. Blood-feeding inhibition was assessed by comparing the proportion of blood-fed females (alive or dead) in treated and control tests. Four tunnels were run simultaneously each day, with one control containing untreated netting included with all runs. Three replicates were carried out per treatment.
(§1) In case of multiple tests, the mean value is reported.

Data set [3] has as its system Anopheles stephensi. Briefly: 6 well plate test, knockdown after 1 hour and mortality after 24 and 48 hours. Further details: KD: unit not given here. As to conditions: for 24 hr mort / 48 hr mort / KD: Table B4; for KD: after 1 hour. As to the method: The individual wells of six (6) well tissue culture plates were treated with […] of an ethanol solution containing a test compound at a defined concentration. Once the deposits were dry, ten non-blood fed adult female Anopheles stephensi (between two to five day old) were added to each well, and sustained with a 10% sucrose solution in a cotton wool plug. Assessment of the knockdown after 1 hour (Tables B1-B10), and mortality after 24 and 48 hours (Tables B1-B4) was carried out.
as §1

Data set [4] concerns Anopheles stephensi. Briefly: 12 well plate knockdown test. The conditions noted are these: 1 h, read-out: Anopheles stephensi 1 hour % KD; for pest or weed control at 0.2 ppm: Rate 0.2 PPM; for pest or weed control at 2 ppm: Rate 2 PPM; for pest or weed control at 20 ppm: Rate 20 PPM; for pest or weed control at 200 ppm: Rate 200 PPM. As to the method: (§2) The individual wells of a twelve (12) well tissue culture plates were treated with 100 μl of an ethanol solution containing a test compound at a defined concentration. Once the deposits were dry, five non-blood fed adult female Aedes aegypti or Anopheles stephensi (between two to five day old) were added to each well, and sustained with a 10% sucrose solution in a cotton wool plug. Assessment of the knockdown after 1 hour was carried out. Where multiple replicates of a treatment have been undertaken, the mean of those replicates is reported.

Data set [5] concerns Aedes aegypti. Put plainly: 12 well plate knockdown test. As to conditions: 1 h, read-out: Aedes aegypti 1 hour % KD; for pest or weed control at 0.2 ppm: Rate 0.2 PPM; for pest or weed control at 2 ppm: Rate 2 PPM; for pest or weed control at 20 ppm: Rate 20 PPM; for pest or weed control at 200 ppm: Rate 200 PPM. As to the method: as §2

Turning to `N#CCNC(=O)c1cnccc1C(F)(F)F` [Flonicamid], in data set [1], the “24 hour % mort” value worked out at 0%, the “48 hour % mort” value is 0% and the “% 1 hour KD” value is 0%.

In data set [2] (24 h, Table B13, 5 mg/m2), `CC1(C)[C@H](C(=O)O[C@H](C#N)c2cccc(Oc3ccccc3)c2)[C@@H]1C=C(Br)Br` [Deltamethrin, reference compound] showed a mortality at 5 mg/m2 of 13%. Further, in data set [2] (Table B12, 5 mg/m2), the “% 1 hour KD” value is reported as 0%. The “% Blood fed” value is on record as 0% in data set [2] (Table B12, 5 mg/m2) and 52.77% in data set [2] (Table B13, 5 mg/m2). Besides, the “% Through net” value in data set [2] (Table B12, 5 mg/m2) was determined as 0.93%; in data set [2] (Table B13, 5 mg/m2), 67.6%. In addition, the “knockdown after 1 hour, Alone” value in data set [3] (Table B6, 0.03125 ppm) is reported as 20; in data set [3] (Table B6, 0.0625 ppm) it was 40; in data set [3] (Table B6, 0.125 ppm) it was 40; in data set [3] (Table B6, 0.25 ppm), 100; in data set [3] (Table B6, 0.5 ppm), 100; in data set [3] (Table B6, 1 ppm), 100.

Consider `CC(=O)CNC(=O)c1cnccc1C(F)(F)F` [I.23], for which, in data set [4], the pest or weed control at 0.2 ppm stood at 0%, the pest or weed control at 2 ppm turned out to be 20%, the pest or weed control at 20 ppm turned out to be 40% and the pest or weed control at 200 ppm worked out at 100%. Besides, in data set [5], the pest or weed control at 0.2 ppm worked out at 40%, the pest or weed control at 2 ppm turned out to be 100%, the pest or weed control at 20 ppm came to 100% and the pest or weed control at 200 ppm was found to be 100%.

With `N/C(=N/C(=O)c1cnccc1C(F)(F)F)C1CC1` [I.19], in data set [4], the pest or weed control at 0.2 ppm stood at 40%, the pest or weed control at 2 ppm worked out at 60%, the pest or weed control at 20 ppm is 100% and the pest or weed control at 200 ppm amounted to 100%. In addition, in data set [5], the pest or weed control at 0.2 ppm was found to be 0%, the pest or weed control at 2 ppm was determined as 100%, the pest or weed control at 20 ppm was 100% and the pest or weed control at 200 ppm turned out to be 100%.

Turning to `CCNNC(=O)c1cnccc1C(F)(F)F` [I.27], in data set [4], the pest or weed control at 0.2 ppm came out at 0%, the pest or weed control at 2 ppm amounted to 0%, the pest or weed control at 20 ppm stood at 100% and the pest or weed control at 200 ppm was found to be 100%. In addition, in data set [5], the pest or weed control at 0.2 ppm was 0%, the pest or weed control at 2 ppm turned out to be 100%, the pest or weed control at 20 ppm was determined as 100% and the pest or weed control at 200 ppm amounted to 100%.

As to `O=C(NCc1ccc(Cl)cc1)c1cnccc1C(F)(F)F` [I.2], in data set [4], the pest or weed control at 0.2 ppm was 0%, the pest or weed control at 2 ppm turned out to be 60%, the pest or weed control at 20 ppm is 80% and the pest or weed control at 200 ppm stood at 100%. For the same compound, in data set [5], the pest or weed control at 0.2 ppm came out at 100%, the pest or weed control at 2 ppm stood at 100%, the pest or weed control at 20 ppm is 100% and the pest or weed control at 200 ppm was found to be 100%.

As for `CN(OC(=O)OCc1ccccc1)C(=O)c1cnccc1C(F)(F)F` [I.8], in data set [4], the pest or weed control at 0.2 ppm was 60%, the pest or weed control at 2 ppm stood at 100%, the pest or weed control at 20 ppm was found to be 100% and the pest or weed control at 200 ppm turned out to be 100%. For the same compound, in data set [5], the pest or weed control at 0.2 ppm was found to be 100%, the pest or weed control at 2 ppm is 100%, the pest or weed control at 20 ppm came out at 100% and the pest or weed control at 200 ppm was 100%.

As to `NC(=S)c1cnccc1C(F)(F)F` [I.22], in data set [4], the pest or weed control at 0.2 ppm was 40%, the pest or weed control at 2 ppm came out at 60%, the pest or weed control at 20 ppm was found to be 60% and the pest or weed control at 200 ppm was found to be 100%. In data set [5], the pest or weed control at 0.2 ppm was found to be 100%, the pest or weed control at 2 ppm was 100%, the pest or weed control at 20 ppm came to 100% and the pest or weed control at 200 ppm is 100%.

In the case of `CCOC(=O)ON(C)C(=O)c1cnccc1C(F)(F)F` [I.9], in data set [4], the pest or weed control at 0.2 ppm was 20%, the pest or weed control at 2 ppm was 100%, the pest or weed control at 20 ppm was 100% and the pest or weed control at 200 ppm amounted to 100%. In addition, in data set [5], the pest or weed control at 0.2 ppm was found to be 100%, the pest or weed control at 2 ppm is 100%, the pest or weed control at 20 ppm was determined as 100% and the pest or weed control at 200 ppm stood at 100%.

Regarding `FC(F)(F)c1ccncc1C1=NCCN1` [I.20], in data set [4], the pest or weed control at 0.2 ppm is 20%, the pest or weed control at 2 ppm is 60%, the pest or weed control at 20 ppm amounted to 100% and the pest or weed control at 200 ppm amounted to 100%. Further, in data set [5], the pest or weed control at 0.2 ppm was found to be 0%, the pest or weed control at 2 ppm is 40%, the pest or weed control at 20 ppm turned out to be 100% and the pest or weed control at 200 ppm turned out to be 100%.

For `CN(OC(=O)Oc1ccccc1)C(=O)c1cnccc1C(F)(F)F` [I.28], in data set [4], the pest or weed control at 0.2 ppm is 0%, the pest or weed control at 2 ppm is 0%, the pest or weed control at 20 ppm came out at 40% and the pest or weed control at 200 ppm turned out to be 100%. In data set [5], the pest or weed control at 0.2 ppm was determined as 20%, the pest or weed control at 2 ppm was 40%, the pest or weed control at 20 ppm was 60% and the pest or weed control at 200 ppm came to 100%.

Turning to `COC(=O)N(C(=O)N1CO[C@@]2(C(=O)OC)Cc3cc(Cl)ccc3C2=N1)c1ccc(OC(F)(F)F)cc1` [Indoxacarb], in data set [2] (Table B14, 20 mg/m2), the “% 24 hour mortality” value was 7.6%. For the same compound, in data set [2] (Table B14, 20 mg/m2), the “% Blood fed” value is recorded as 31.4%. The 24 hr mort in data set [3] (12.5 ppm alone), in data set [3] (25 ppm alone), in data set [3] (50 ppm alone) and in data set [3] (100 ppm alone) was 0.0 throughout. The 48 hr mort in data set [3] (12.5 ppm alone), in data set [3] (25 ppm alone), in data set [3] (50 ppm alone) and in data set [3] (100 ppm alone) was 0.0 in each case. The KD in data set [3] (12.5 ppm alone), in data set [3] (25 ppm alone), in data set [3] (50 ppm alone) and in data set [3] (100 ppm alone) was 0.0 in each case. Besides, the “knockdown after 1 hour, Alone” value in data set [3] (Table B7, 25 ppm) is listed as 0; in data set [3] (Table B7, 50 ppm) it was 0; in data set [3] (Table B7, 100 ppm), 0; in data set [3] (Table B7, 200 ppm) it was 0.

Turning to `CC(NC(=O)c1cnccc1C(F)(F)F)C(N)=S` (centres unmarked) [I.26], in data set [4], the pest or weed control at 0.2 ppm is 0%, the pest or weed control at 2 ppm turned out to be 0%, the pest or weed control at 20 ppm came out at 100% and the pest or weed control at 200 ppm was 100%. Besides, in data set [5], the pest or weed control at 0.2 ppm amounted to 0%, the pest or weed control at 2 ppm came out at 100%, the pest or weed control at 20 ppm is 100% and the pest or weed control at 200 ppm was 100%.
